Assay results published in patent US20260285880A1, “SUBSTITUTED DIHYDROTHIENOPYRIMIDINE COMPOUND, PREPARATION METHOD THEREFOR, AND USE THEREOF” (SHANGHAI YIDI BIOTECHNOLOGY CO., LTD., priority 2023, published 2026).
Read-outs that look alike come from different tables or passages of the source.

How the values were obtained:
Flpin-293-PDE4B2 cells [1] = target: T1, Flpin-293-PDE4B2 cells (Homo sapiens, UniProt Q07343); settings: for Cell Inhibition % @1 nM: 0.001 µM; for Cell Inhibition % @10 nM: 0.01 µM; for Cell Inhibition % @100 nM: 0.1 µM; for IC50: read-out: PDE4B2 IC50 Cell, Foskolin
T1 sequence (Q07343 1-564 isoform Q07343-2): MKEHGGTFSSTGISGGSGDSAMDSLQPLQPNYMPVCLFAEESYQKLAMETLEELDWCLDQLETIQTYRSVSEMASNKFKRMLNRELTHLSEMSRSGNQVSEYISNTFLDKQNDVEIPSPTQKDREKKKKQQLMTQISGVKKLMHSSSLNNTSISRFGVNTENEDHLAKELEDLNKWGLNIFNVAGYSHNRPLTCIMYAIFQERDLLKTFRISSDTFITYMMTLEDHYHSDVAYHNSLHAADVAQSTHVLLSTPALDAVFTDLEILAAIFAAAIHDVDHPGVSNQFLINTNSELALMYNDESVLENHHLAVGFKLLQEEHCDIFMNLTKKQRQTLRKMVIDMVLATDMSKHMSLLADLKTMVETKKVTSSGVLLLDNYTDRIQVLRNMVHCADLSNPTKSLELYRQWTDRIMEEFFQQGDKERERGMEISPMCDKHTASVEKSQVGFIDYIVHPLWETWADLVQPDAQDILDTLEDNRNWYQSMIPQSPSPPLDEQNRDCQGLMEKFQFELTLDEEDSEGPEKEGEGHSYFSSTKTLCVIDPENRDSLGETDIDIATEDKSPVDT

PDE4D2 = PDE4D2 (Homo sapiens, UniProt Q08499); assay: PDE4D2 enzyme experiment (AMP-Glo)
PDE4D2, sequence (Q08499 303-809 limits assumed): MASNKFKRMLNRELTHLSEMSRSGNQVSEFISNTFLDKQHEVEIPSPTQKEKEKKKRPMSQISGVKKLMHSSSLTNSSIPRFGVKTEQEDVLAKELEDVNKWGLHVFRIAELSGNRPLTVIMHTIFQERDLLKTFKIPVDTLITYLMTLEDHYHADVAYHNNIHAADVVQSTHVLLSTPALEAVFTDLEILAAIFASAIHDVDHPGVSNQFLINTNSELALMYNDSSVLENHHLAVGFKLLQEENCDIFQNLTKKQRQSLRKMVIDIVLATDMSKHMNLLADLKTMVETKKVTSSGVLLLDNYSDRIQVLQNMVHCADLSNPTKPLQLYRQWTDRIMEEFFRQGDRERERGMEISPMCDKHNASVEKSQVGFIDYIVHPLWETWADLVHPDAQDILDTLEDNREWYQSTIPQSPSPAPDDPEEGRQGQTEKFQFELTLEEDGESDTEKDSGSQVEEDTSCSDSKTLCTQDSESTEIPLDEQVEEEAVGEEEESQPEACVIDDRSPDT
Protocol: (§1) All compounds were dissolved in DMSO into 10 mM or 20 mM stock solutions. The compound to be tested was diluted with DMSO in a 3-fold gradient. 20 nL/well of the compound or a DMSO control was transferred to a 384-well plate by using Echo 550 instrument. The plate was sealed with a membrane and centrifuged for 1 minute. A 2× enzyme solution was prepared with an assay buffer, and 2 uL/well of the 2× enzyme solution was added, followed by equilibration at room temperature for 10 minutes. A 2× Cyclic-3′,5′-AMP substrate solution was prepared with an assay buffer, and 2 uL/well of the 2× substrate solution was added, followed by incubation at room temperature for 60 minutes. 4 μL of AMP-glo reagent was added, followed by incubation at room temperature for 60 minutes. 8 ul of an AMP detection solution was added, followed by incubation at room temperature for 60 minutes. An RLU value was read on Envision 2105 plate reader. The RLU value represents the concentration of the product AMP. Inhibition rate %=(1−(RLUpositive control−RLUcomnpound)/(RLUpositive control−RLUnegative control))*100. The IC50 value was then calculated by Graphpad 8.0 software using Y=Bottom+(Top−Bottom)/(1+10^((LogIC50−X)*HillSlope)).

PDE4B2 [2] = target: T2, PDE4B2 (Homo sapiens, UniProt Q07343); settings: read-out: PDE4B2 IC50; enzyme assay
T2 sequence (Q07343 1-564 isoform Q07343-2, species assumed): as the sequence (Q07343 1-564 isoform Q07343-2) above
Protocol: as §1

Flpin-293-PDE4B2 cells [3] = target: T1, Flpin-293-PDE4B2 cells; assay: cell-based
PDE4B2 [4] = target: T2, PDE4B2; assay: biochemical
Protocol: as §1

[5] = read-out: PDE4D2 IC50 Binding, enzyme assay

| Compound | Cell Inhibition % @1 nM (Flpin-293-PDE4B2 cells [1]) | Cell Inhibition % @10 nM (Flpin-293-PDE4B2 cells [1]) | Cell Inhibition % @100 nM (Flpin-293-PDE4B2 cells [1]) | IC50 (PDE4D2; [5]) | IC50 (PDE4B2 [2]) | IC50 (Flpin-293-PDE4B2 cells [1]) | further results |
| --- | --- | --- | --- | --- | --- | --- | --- |
| [O-][S+]1CCc2nc(N3CCc4cc(N5CCCC5C(F)(F)F)ccc4C3)nc(NC3(CO)CCC3)c21 (stereo not shown) [Compound 158] | 14.79% | 61.64% | 99.33% | 0.653 nM | 0.273 nM | – | – |
| [O-][S+]1CCc2nc(N3CCc4cc(N5CCCC5C(F)(F)F)ccc4C3)nc(NC3(CO)CCC3)c21 (stereo not shown) [Compound 157] | – | 23.21% | – | – | – | – | inhibition at 0.001 µM (Flpin-293-PDE4B2 cells [3]; read-out: Cell Inhibition % @1 nM, 1 nM, Flpin-293-PDE4B2 cells): 8.27%; inhibition at 0.1 µM (Flpin-293-PDE4B2 cells [3]; read-out: Cell Inhibition % @100 nM, 100 nM, Flpin-293-PDE4B2 cells): 83.1% |
| [O-][S@+]1CCc2nc(N3CCc4c(ccc5[nH]ncc45)C3)nc(NC3(CO)CCC3)c21 [Compound 118, (R)-4-((1-(hydroxymethyl)cyclobutyl)amino)-2-(3,6,8,9-tetrahydro-7H-pyrazolo[4,3-f]isoquinolin-7-yl)-6,7-dihydrothieno[3,2-d]pyrimidine 5-oxide] | – | – | – | – | – | – | IC50 (PDE4B2 [4]): 0.414 nM; IC50 (PDE4D2): 0.748 nM |
| C[C@@H]1c2ccc(Cl)cc2CCN1c1nc2c(c(NC3(CO)CCC3)n1)[S@+]([O-])CC2 [Compound 29] | – | – | – | – | – | 20.9 nM | – |
| C[C@H]1c2ccc(N3CCCC3)cc2CCN1c1nc2c(c(NC3(CO)CCC3)n1)[S+]([O-])CC2 (stereo partly shown) [Compound 167] | – | – | – | 0.993 nM | 0.087 nM | 20.7 nM | – |
| N#CC1CCN(c2ccc3c(c2)CCN(c2nc4c(c(NC5(CO)CCC5)n2)[S+]([O-])CC4)C3)C1 (stereo not shown) [Compound 160] | 15.06% | 75.05% | 99.84% | 0.748 nM | 0.224 nM | – | – |
